US10179816B2, “Pharmaceutical compositions comprising an antibody which binds the human anti-Müllerian hormone receptor type II” (LABORATOIRE FRANCAIS DU FRACTIONNEMENT DES BIOTECHNOLOGIES, priority 2011, dated 2019)
Several values for one entry are separate records, joined by “and”; a condition that tells them apart may be missing. Equal entries are not always repeated. Entries after “also recorded” stand apart in the source; their conditions may differ.

How the values were obtained:
[1] = test system: Cov434-AMHRII Asc1a5 (cell line of human ovarian cancer transfected with cDNA AMHRII); assay: Anti-tumour activity of 3C23K alone or with carboplatin in Cov434-AMHRII Asc1a5 xenograft (tumour volume, T/C ratio, statistical analysis); format: in vivo, female Swiss nude mouse; settings: for Anti-tumour activity (in words): carboplatin study, comparator as stated in the sentence
Procedure: The 3C23K antibody was evaluated according to the following scheme: 2 times per week for 6 weeks, for a total of 12 injections at about 10 mg/kg/injection, said administration regimen being designated below as “Q3-4D12”. Another group of mice was treated with an irrelevant antibody LFB-R565, administered at about 10 mg/kg/injection, according to the regimen Q3-4D12.
Carboplatin was evaluated, at a sub-optimum dose, i.e. about 60 mg/kg/injection, according to the following scheme: once a week, for 4 weeks, said administration regimen being designated below as “Q7D4”.
Carboplatin was also evaluated in combination with the 3C23K antibody or with the irrelevant antibody LFB-R565. Carboplatin was administered at about 60 mg/kg/injection according to the Q7D4 regimen and the 3C23K antibody or the irrelevant antibody LFB-R565 at about 10 mg/kg/injection according to the regimen Q3-4D12.
The mice were randomized on D11, when the volume of the tumours was between 50 and 158 mm^3, and the treatments began on D13 (9 mice per group).
The tumours were usually measured twice weekly.
The curves of the individual volume of the tumours were plotted.
In one experiment with 9 mice per group, the curves and analyses were therefore stopped when fewer than 8 values per group had been obtained (8 mice alive).
A Kruskal-Wallis test was also carried out.

[2] = Body weight of the mice, carboplatin combination study; format: in vivo; settings: for Individual body weight of the mice: one value per mouse
Description: Moreover, to identify whether the treatment has a toxic effect, the weight of the mice was monitored individually once a week.

[3] = test system: Cov434-AMHRII Asc1a5 tumour cells;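 further: control mice received NaCl solution, survival endpoint was euthanasia once tumour volume hit 2000 mm^3 or on ethical grounds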
Description: A solution of NaCl was used as the control.
(§1) The animals were sacrificed when the tumour volumes reached 2000 mm^3 or for ethical reasons. The curves of mean values and median values as well as the statistical analyses were stopped when 20% of the mice in the group were dead.

[4] = test system: Cov434-AMHRII Asc1a5 tumour cells (a cell line of human ovarian cancer); assay: Anti-tumour activity of 3C23K alone or with paclitaxel in Cov434-AMHRII Asc1a5 xenograft (tumour volume, T/C ratio, statistical analysis); settings: for Kruskal-Wallis Test: contrast vs control; for Individual tumour volume: individual mice;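 on all read-outs here: subcutaneous Cov434-AMHRII Asc1a5 xenografts in female Swiss nude mice, tumour volume from length×width×height/2 in mm^3, randomized D13, dosing from D14, 8 mice per group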
Procedure: Female Swiss nude mice (Harlan Laboratories) were injected subcutaneously (s.c.) with 7.10^6 cells of Cov434-AMHRII Asc1a5 (cell line of human ovarian cancer transfected with cDNA AMHRII) in Matrigel (1:1 ratio) under a volume of 150 μL on day 0 (D0).
The mice were randomized on D13, when the volume of the tumours was between 58 and 150 mm^3, and the treatments began on D14 (8 mice per group).
The tumours were usually measured twice weekly. Tumour volume (TV) was calculated using the following formula, in which the length corresponds to the largest of the tumour diameters, the width corresponds to the smallest of the tumour diameters and the tumour height: TV (mm^3)=(length×width×height)/2.
In addition, for each group, curves of tumour growth were plotted using the calculated mean tumour volumes or the median tumour volumes.
as §1
In one experiment with 8 mice per group, the curves and analyses were stopped when fewer than 7 values per group had been obtained (7 mice alive).
The statistical differences between the different groups were analysed by ANOVA comparison using the Statgraphics centurion XV software.
The ANOVA table breaks down the variance into two components: an inter-group component and an intra-group component. The ratio F is the ratio of the inter-group estimate to the intra-group estimate. When the P value of test F is greater than or equal to 0.05, there is no statistically significant difference between the mean values of the two groups, with a confidence level of 95%. P values less than 0.05 indicate a significant difference between the mean values of the two groups with a confidence level of 95%.
A Kruskal-Wallis test was also carried out. When the P value is greater than or equal to 0.05, there is no statistically significant difference between the median of the two groups, with a confidence level of 95%. P values less than 0.05 indicate a significant difference between the medians of the two groups with a confidence level of 95%.
The treatment is initiated on day 14 after injection.

[5] = D11, randomization, before treatment
[6] = Day 13, randomization, before treatment

SMILES: N.N.O=C([O-])C1(C(=O)[O-])CCC1.[Pt+2] [carboplatin, reference compound]
- Individual tumour volume [1, 5]: 53 mm^3 and 142 mm^3 and 61 mm^3 and 102 mm^3 and 90 mm^3 and 72 mm^3 and 81 mm^3 and 70 mm^3 and 114 mm^3
- Mean tumour volume [1, 5]: 87 mm^3
- Median tumour volume [1, 5]: 81 mm^3
- Individual tumour volume ([1]; D14): 104 mm^3 and 210 mm^3 (2×) and 162 mm^3 and 126 mm^3 and 123 mm^3 and 75 mm^3 and 134 mm^3 and 168 mm^3
- Mean tumour volume ([1]; D14): 146 mm^3
- Median tumour volume ([1]; D14): 134 mm^3
- Individual tumour volume ([1]; D18): 98 mm^3 and 173 mm^3 and 112 mm^3 (2×) and 336 mm^3 and 248 mm^3 and 140 mm^3 and 90 mm^3 (2×)
- Mean tumour volume ([1]; D18): 155 mm^3
- Median tumour volume ([1]; D18): 112 mm^3
- Individual tumour volume ([1]; D22): 378 mm^3 and 126 mm^3 and 360 mm^3 and 324 mm^3 and 363 mm^3 and 270 mm^3 and 156 mm^3 and 198 mm^3 and 168 mm^3
- Mean tumour volume ([1]; D22): 260 mm^3
- Median tumour volume ([1]; D22): 270 mm^3
- Individual tumour volume ([1]; D25): 140 mm^3 and 240 mm^3 and 270 mm^3 and 616 mm^3 and 152 mm^3 and 358 mm^3 and 98 mm^3 and 243 mm^3 and 210 mm^3
- Mean tumour volume ([1]; D25): 258 mm^3
- Median tumour volume ([1]; D25): 240 mm^3
- Individual tumour volume ([1]; D29): 270 mm^3 and 200 mm^3 and 360 mm^3 (2×) and 768 mm^3 and 363 mm^3 and 168 mm^3 and 420 mm^3
- Mean tumour volume ([1]; D29): 344 mm^3
- Median tumour volume ([1]; D29): 360 mm^3
- Individual tumour volume ([1]; D32): 351 mm^3 and 243 mm^3 and 578 mm^3 and 864 mm^3 and 653 mm^3 and 504 mm^3 and 220 mm^3 and 462 mm^3
- Mean tumour volume ([1]; D32): 461 mm^3
- Median tumour volume ([1]; D32): 462 mm^3
- Individual tumour volume ([1]; D36): 630 mm^3 and 424 mm^3 and 1148 mm^3 and 1610 mm^3 and 893 mm^3 and 462 mm^3 and 308 mm^3 and 774 mm^3
- Mean tumour volume ([1]; D36): 760 mm^3
- Median tumour volume ([1]; D36): 630 mm^3
- Individual tumour volume ([1]; D39): 660 mm^3 and 484 mm^3 and 1134 mm^3 and 1495 mm^3 and 1488 mm^3 and 447 mm^3 and 347 mm^3 and 910 mm^3 and 423 mm^3
- Mean tumour volume ([1]; D39): 821 mm^3
- Median tumour volume ([1]; D39): 660 mm^3
- Individual tumour volume ([1]; D43): 864 mm^3 and 592 mm^3 and 1881 mm^3 and 2112 mm^3 and 2038 mm^3 and 882 mm^3 and 438 mm^3 and 1105 mm^3 and 672 mm^3
- Mean tumour volume ([1]; D43): 1176 mm^3
- Median tumour volume ([1]; D43): 882 mm^3
- Individual tumour volume ([1]; D46): 1071 mm^3 and 501 mm^3 and 2205 mm^3 and 810 mm^3 and 378 mm^3 and 1450 mm^3 and 878 mm^3
- Individual tumour volume ([1]; D49): 1568 mm^3 and 819 mm^3 and 1125 mm^3 and 480 mm^3 and 1650 mm^3 and 980 mm^3
- Anti-tumour activity (in words) [1]: anti-tumour effect; also recorded: exerts anti-tumour activity
- Anti-tumour activity (in words) ([1]; listed as Carboplatin): significant anti-tumour activity
- T/C ratio ([1]; relative to Control group, D11 (before treatment)): 89%
- T/C ratio ([1]; relative to Control group, D14): 82%
- T/C ratio ([1]; relative to Control group, D18): 52%
- T/C ratio ([1]; relative to Control group, D22): 69%
- T/C ratio ([1]; relative to Control group, D25): 54%
- T/C ratio ([1]; relative to Control group, D29): 56%
- T/C ratio ([1]; relative to Control group, D32): 45%
- T/C ratio ([1]; relative to Control group, D36): 40%
- T/C ratio ([1]; relative to LFB-R565 group, D11 (before treatment)): 100%
- T/C ratio ([1]; relative to LFB-R565 group, D14): 87%
- T/C ratio ([1]; relative to LFB-R565 group, D18): 65%
- T/C ratio ([1]; relative to LFB-R565 group, D22): 100%
- T/C ratio ([1]; relative to LFB-R565 group, D25): 59%
- T/C ratio ([1]; relative to LFB-R565 group, D29): 52%
- T/C ratio ([1]; relative to LFB-R565 group, D32): 67%
- T/C ratio ([1]; relative to LFB-R565 group, D36): 35%
- Individual body weight of the mice ([2]; D11 (Sep. 19, 2011)): 22.3 (2×) and 25.8 and 23.0 and 27.1 and 23.3 and 24.5 and 22.7 and 20.4
- Individual body weight of the mice ([2]; D18 (Sep. 26, 2011), in g (unit assumed)): 22.2 and 24.6 and 22.6 and 26.1 and 24.4 and 25.4 and 23.6 and 20.3 and 22.0
- Individual body weight of the mice ([2]; D25 (Oct. 3, 2011)): 27.6 and 28.3 and 25.6 (2×) and 32.7 and 27.0 and 29.4 and 24.2 and 26.0
- Individual body weight of the mice ([2]; D32 (Oct. 10, 2011)): 23.7 and 24.5 and 23.6 (2×) and 28.0 and 23.1 (2×) and 21.1 and 20.2
- Individual body weight of the mice ([2]; D39 (Oct. 17, 2011), in g (unit assumed)): 24.3 and 23.9 and 25.1 and 27.2 and 25.4 and 22.4 and 20.0 and 21.0 and 23.3
- Individual body weight of the mice ([2]; D46 (Oct. 24, 2011)): 25.4 and 25.7 (2×) and 26.4 and 21.7 and 21.0 and 25.0
- Mean body weight of the mice ([2]; Day 11 (before treatment)): 23.5 g
- Mean body weight of the mice ([2]; Day 18): 23.5 g
- Mean body weight of the mice ([2]; Day 25): 27.4 g
- Mean body weight of the mice ([2]; Day 32): 23.4 g
- Mean body weight of the mice ([2]; Day 39): 23.6 g
- Effect on body weight / toxic effect (in words) ([2]; carboplatin study): not regarded as a toxic effect
- Decrease in body weight ([2]; on D32 in comparison with D25, after the third injection of carboplatin): about 15%

SMILES: CC(=O)O[C@H]1C(=O)[C@@]2(C)[C@H]([C@H](OC(=O)c3ccccc3)[C@]3(O)C[C@H](OC(=O)[C@H](O)[C@@H](NC(=O)c4ccccc4)c4ccccc4)C(C)=C1C3(C)C)[C@]1(OC(C)=O)CO[C@@H]1C[C@@H]2O [paclitaxel, reference compound]
- Survival parameter: logrank test chi-squared ([3]; contrast vs control): 0.04
- Survival parameter Mean ([3]; group of 8 mice): 45 days
- Survival parameter Median ([3]; group of 8 mice): 45 days
- survival parameter ([3]; individual mice, experiment ended on day 83): 34 Days and 41 Days (2×) and 45 Days (2×) and 51 Days (2×) and 55 Days
- Statistical analysis based on the survival parameter (in words) ([3]; mouse, in vivo): does not have an activity that is significantly different from that of the control
- Kruskal-Wallis Test ([4]; D13): 0.04
- Kruskal-Wallis Test ([4]; D20): 0.47
- Statistical analysis of tumour volume (in words) ([4]; D20 to D41): does not have an activity that is significantly different from that of the control
- Kruskal-Wallis Test ([4]; D24): 0.28
- Kruskal-Wallis Test ([4]; D27): 1.10
- Kruskal-Wallis Test ([4]; D31): 0.89
- Kruskal-Wallis Test ([4]; D35): 0.10
- Kruskal-Wallis Test ([4]; D41): 0.20
- Mean tumour volume [4, 6]: 97 mm^3
- Median tumour volume [4, 6]: 90 mm^3
- Individual tumour volume ([4]; Day 13): 126 mm3 and 117 mm3 and 98 mm3 and 83 mm3 (2×) and 66 mm3 and 144 mm3 and 58 mm3
- Mean tumour volume ([4]; Day 20): 226 mm^3
- Median tumour volume ([4]; Day 20): 228 mm^3
- Individual tumour volume ([4]; Day 20): 424 mm3 and 243 mm3 and 240 mm3 and 280 mm3 and 170 mm3 and 126 mm3 and 217 mm3 and 105 mm3
- Mean tumour volume ([4]; Day 24): 313 mm^3
- Median tumour volume ([4]; Day 24): 270 mm^3
- Individual tumour volume ([4]; Day 24): 756 mm3 and 257 mm3 and 356 mm3 and 284 mm3 and 380 mm3 and 180 mm3 (2×) and 110 mm3
- Median tumour volume ([4]; Day 27): 336 mm^3
- Individual tumour volume ([4]; Day 27): 896 mm3 and 325 mm3 and 386 mm3 and 255 mm3 and 560 mm3 and 347 mm3 and 270 mm3 and 198 mm3
- Mean tumour volume ([4]; Day 31): 589 mm^3
- Median tumour volume ([4]; Day 31): 415 mm^3
- Individual tumour volume ([4]; Day 31): 1530 mm3 and 420 mm3 and 673 mm3 and 410 mm3 (2×) and 720 mm3 and 358 mm3 and 192 mm3
- Mean tumour volume ([4]; Day 35): 1176 mm^3
- Median tumour volume ([4]; Day 35): 986 mm^3
- Individual tumour volume ([4]; Day 35): 2706 mm3 and 699 mm3 and 1200 mm3 and 1008 mm3 and 1653 mm3 and 965 mm3 and 823 mm3 and 351 mm3
- Mean tumour volume ([4]; Day 41): 1390 mm^3
- Median tumour volume ([4]; Day 41): 1309 mm^3
- Individual tumour volume ([4]; Day 41): 1064 mm3 and 2380 mm3 and 1309 mm3 and 1389 mm3 and 2269 mm3 and 884 mm3 and 437 mm3
- Individual tumour volume ([4]; Day 45): 1632 mm3 and 2040 mm3 and 2112 mm3 and 1197 mm3 and 798 mm3
- Individual tumour volume ([4]; Day 48): 1536 mm3 and 1323 mm3 and 1232 mm3
- Individual tumour volume ([4]; Day 51): 2166 mm3 and 2112 mm3 and 1348 mm3
- Individual tumour volume ([4]; Day 55): 2132 mm3
- Anti-tumour activity (in words) ([4]; paclitaxel study): modest inhibition of tumour growth
